Assay results published in ChEMBL document CHEMBL3797190, “Development of 3,5-Dinitrobenzylsulfanyl-1,3,4-oxadiazoles and Thiadiazoles as Selective Antitubercular Agents Active Against Replicating and Nonreplicating Mycobacterium tuberculosis” (J Med Chem, 2016).
In brackets after ≈: the same amount, converted by molar mass. Activity calls are given as the source filed them. The calls are words filed in the database; no cut-off is given here.

What was measured:
[1] = test system: Mycobacterium tuberculosis; experiment: Inhibition of RNA biosynthesis in Mycobacterium tuberculosis H37Ra assessed as reduction of [14C]-uracil incorporation at 1 ug/ml preincubated for 1 hr followed by radiolabeling with [14C]-uracil for 24 hrs by scintillation spectrometry; assay type: functional
[2] = test system: Mycobacterium tuberculosis; experiment: Inhibition of proteosynthesis in Mycobacterium tuberculosis H37Ra assessed as reduction of [14C]-methionine incorporation at 1 ug/ml preincubated for 1 hr followed by radiolabeling with [14C]-methionine for 24 hrs by scintillation spectrometry; assay type: functional
[3] = test system: Mycobacterium tuberculosis; experiment: Antimycobacterial activity against Mycobacterium tuberculosis CNCTC My 331/88 after 14 days by microdilution method; assay type: functional; details: CNCTC My 331/88, 336 h
[4] = Cytotoxicity against MDCK2-MDR1 cells assessed as cell viability after 48 hrs by MTS assay; assay type: ADME, cell-based; details: Canis lupus familiaris, MDCK-II
[5] = Cytotoxicity against human HeLa cells assessed as cell viability at 20 uM after 24 hrs by MTS assay; assay type: cell-based; details: read-out: Activity
[6] = Chemical stability of compound in DMSO under open-vessel condition at 4 mg/ml at 60 degC after 3 days by 1H-NMR analysis; assay type: physicochemical; details: 72 h
[7] = Intrinsic clearance in human liver microsomes assessed per mg of protein at 3 uM preincubated for 5 mins followed by NADPH addition by HPLC analysis; assay type: ADME; details: read-out: CLH
[8] = Aqueous solubility of compound in water with 0.01 to 1% DMSO at 2 to 200 uM by HPLC analysis; assay type: physicochemical
PBL [9] = experiment: Genotoxicity in human PBL at 0.6 to 12 mM by micronucleus test in presence of metabolic activation; assay type: toxicity, cell-based; details: 12000 µM
PBL [10] = experiment: Genotoxicity in human PBL at 0.6 to 12 mM by micronucleus test in absence of metabolic activation; assay type: toxicity, cell-based; details: 12000 µM
PBL [11] = experiment: Genotoxicity in human PBL at 0.6 to 12 mM by chromosome aberration test in presence of metabolic activation; assay type: toxicity, cell-based; details: 12000 µM
PBL [12] = experiment: Genotoxicity in human PBL at 0.6 to 12 mM by chromosome aberration test in absence of metabolic activation; assay type: toxicity, cell-based; details: 12000 µM
Aspergillus fumigatus = experiment: Antifungal activity against Aspergillus fumigatus 231 after 24 to 48 hrs by broth microdilution method; assay type: functional
Lichtheimia corymbifera = experiment: Antifungal activity against Absidia corymbifera 272 after 24 to 48 hrs by broth microdilution method; assay type: functional
[13] = test system: Trichophyton mentagrophytes; experiment: Antifungal activity against Trichophyton mentagrophytes 445 after 72 to 120 hrs by broth microdilution method; assay type: functional
Staphylococcus aureus = experiment: Antibacterial activity against Staphylococcus aureus ATCC 6538 after 24 to 48 hrs by broth microdilution method; assay type: functional
Pseudomonas aeruginosa = experiment: Antibacterial activity against Pseudomonas aeruginosa ATCC 9027 after 24 to 48 hrs by broth microdilution method; assay type: functional
[14] = test system: Mycobacterium tuberculosis H37Ra; experiment: Inhibition of DprE1 in Mycobacterium tuberculosis H37Ra assessed as accumulation of trehalose dimycolate at 0.5 ug/ml preincubated for 24 hrs followed by radiolabeling with [14C]-acetate for 24 hrs by TLC/autoradiographic method
[15] = test system: Mycobacterium tuberculosis; experiment: Antimycobacterial activity against Mycobacterium tuberculosis CNCTC My 331/88 using 1 month stored compound at room temperature in DMSO after 14 to 21 days by microdilution method; assay type: functional, organism-based
[16] = test system: Mycobacterium tuberculosis; experiment: Antimycobacterial activity against Mycobacterium tuberculosis H37Ra assessed as growth inhibition at 1 ug/ml preincubated for 1 hr followed by radiolabeling with [14C]-uracil, [14C]-methionine for 24 hrs; assay type: functional, organism-based
[17] = Cytotoxicity against human HuH7 cells assessed as cell viability after 48 hrs by MTS assay; assay type: cell-based; details: Huh-7, 48 h

SMILES | inhibition at 1 µg/mL [1] | inhibition at 1 µg/mL [2] | MIC99 [3] | viability at 24 h, 20 µM [5] | microsomal CLint at 3 µM [7] | solubility kinetic [8] | MIC50 (Aspergillus fumigatus) | MIC50 (Lichtheimia corymbifera) | MIC50 [13] | MIC95 (Staphylococcus aureus) | MIC95 (Pseudomonas aeruginosa) | inhibition [14] | Activity [15] | growth inhibition (GI) [16] | further results
O=[N+]([O-])c1cc(CSc2nnc(-c3ccc(Cl)cc3)s2)cc([N+](=O)[O-])c1 | 13% | 20% | 0.06 µM (≈ 0.0245 µg/mL) | 92.8% | 29 µL/min/mg | 0.54 µM (≈ 0.221 µg/mL) | > 125 µM | > 125 µM | > 125 µM | > 125 µM | > 125 µM | inactive | Active | inactive | IC50 [4]: > 20 µM; Stability [6]: Stable; Activity (PBL [9]): Non-toxic; Activity (PBL [10]): Non-toxic; Activity (PBL [11]): Non-toxic; Activity (PBL [12]): Non-toxic
Cc1ccc(-c2nnc(SCc3cc([N+](=O)[O-])cc([N+](=O)[O-])c3)o2)cc1 | 50% | 37% | ≤ 0.03 µM | 87.2% | 86 µL/min/mg | 0.5 µM (≈ 0.186 µg/mL) | > 125 µM | > 125 µM | > 125 µM | > 125 µM | > 125 µM | inactive | Active | Active | IC50 [17]: > 20 µM
